{"source": "patent US8580478B2", "about": "“Latent acids and their use” (BASF SE, priority 2010, dated 2013)", "assay": "Solubility of photoacid generator compounds in cyclohexanone", "format": "physicochemical", "settings": "cyclohexanone as solvent, with stirring; lower amount = better solubility", "method": "In order to determine the solubility of photoacid generator compounds of the present invention, to a weighed amount of the compound to be tested is added cyclohexanone as the solvent with stirring. Determined is the amount of cyclohexanone needed to completely dissolve the photoacid generator compound. […]"}
{"smiles": "CC12CCC(C(=O)OCC(F)C(F)(F)S(=O)(=O)O)(OC1=O)C2(C)C", "note": "(stereo not shown) [Example 57]", "values": [{"measurement": "Solvent needed to completely dissolve 10 g of the compound", "value": 24, "unit": "mL"}]}
